The text below walks through data of patent US20100311714A1, “1H-IMIDAZO[4,5-c]QUINOLINONE COMPOUNDS” (priority 2009, published 2010).

Bounds are passed on as bounds.

What all share (type): biochemical
In assay [1] the target is T1, PI3K alfa (Homo sapiens, UniProt P42336).
T1 construct: His tag (C); made in house; host or cells: baculovirus BV1075; Tn5 (Trichoplusia ni) or TiniPro insect cells
The assay is described as follows: PI3K alpha kinase assay (Kinase-Glo luminescence). The note with it: read-out: EPK_PI3Kalfa/IC50. In short, it runs like this: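 IC50 values come from a four-parameter logistic fit of percent inhibition at eight concentrations, typically 10 to 0.003 μM. Recombinant PI3Kα at 10 nM turned over 1 μM ATP with 10 μg/mL PI for 60 min at room temperature, and residual ATP was measured by Kinase-Glo.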

The target in assay [2] is T2, PI3K beta (Homo sapiens, UniProt P42338).
T2 construct: for the full-length p110-b subunit are generated and fused by overlapping PCR; His tag (C); made in house; host or cells: baculovirus BV949; Tn5 (Trichoplusia ni) or TiniPro insect cells
The assay is described as follows: PI3K beta kinase assay (Kinase-Glo luminescence). The conditions noted are these: read-out: EPK_PI3Kbeta/IC50. In short, it runs like this: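 Kinase-Glo luminescence read out ATP left after a 60-min room-temperature reaction, started with ATP (1 μM final) on 25 nM His-tagged p85 iSH2–p110β (BV949) plus 10 μg/mL PI substrate in pH 7.5 Tris buffer. Percent inhibition at eight concentrations was fitted to a four-parameter logistic model for IC50.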

Assay [3] concerns the target T3, PI3K delta (Homo sapiens, UniProt O00329).
T3 construct: for the full-length p110-d subunit are generated and fused by overlapping PCR; His tag (C); made in house; host or cells: baculovirus BV1060; Tn5 (Trichoplusia ni) or TiniPro insect cells
The assay is described as follows: PI3K delta kinase assay (Kinase-Glo luminescence). The note with it: read-out: EPK_PI3Kdelta/IC50. The gist of the method:
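IC50s derive from 8-point inhibition curves fitted to a 4-parameter logistic model. Reaction: 10 nM purified p110δ/p85 iSH2 fusion, 1 μM ATP, 10 μg/mL PI substrate, pH 7.5 Tris buffer with MgCl2, NaCl, CHAPS and DTT, run 60 min at room temperature; remaining ATP read by Kinase-Glo luminescence.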
For orientation: Kinase-Glo reads ATP consumption through a luciferase reaction.

T1 sequence (P42336 with tags, fused parts or gaps limits assumed): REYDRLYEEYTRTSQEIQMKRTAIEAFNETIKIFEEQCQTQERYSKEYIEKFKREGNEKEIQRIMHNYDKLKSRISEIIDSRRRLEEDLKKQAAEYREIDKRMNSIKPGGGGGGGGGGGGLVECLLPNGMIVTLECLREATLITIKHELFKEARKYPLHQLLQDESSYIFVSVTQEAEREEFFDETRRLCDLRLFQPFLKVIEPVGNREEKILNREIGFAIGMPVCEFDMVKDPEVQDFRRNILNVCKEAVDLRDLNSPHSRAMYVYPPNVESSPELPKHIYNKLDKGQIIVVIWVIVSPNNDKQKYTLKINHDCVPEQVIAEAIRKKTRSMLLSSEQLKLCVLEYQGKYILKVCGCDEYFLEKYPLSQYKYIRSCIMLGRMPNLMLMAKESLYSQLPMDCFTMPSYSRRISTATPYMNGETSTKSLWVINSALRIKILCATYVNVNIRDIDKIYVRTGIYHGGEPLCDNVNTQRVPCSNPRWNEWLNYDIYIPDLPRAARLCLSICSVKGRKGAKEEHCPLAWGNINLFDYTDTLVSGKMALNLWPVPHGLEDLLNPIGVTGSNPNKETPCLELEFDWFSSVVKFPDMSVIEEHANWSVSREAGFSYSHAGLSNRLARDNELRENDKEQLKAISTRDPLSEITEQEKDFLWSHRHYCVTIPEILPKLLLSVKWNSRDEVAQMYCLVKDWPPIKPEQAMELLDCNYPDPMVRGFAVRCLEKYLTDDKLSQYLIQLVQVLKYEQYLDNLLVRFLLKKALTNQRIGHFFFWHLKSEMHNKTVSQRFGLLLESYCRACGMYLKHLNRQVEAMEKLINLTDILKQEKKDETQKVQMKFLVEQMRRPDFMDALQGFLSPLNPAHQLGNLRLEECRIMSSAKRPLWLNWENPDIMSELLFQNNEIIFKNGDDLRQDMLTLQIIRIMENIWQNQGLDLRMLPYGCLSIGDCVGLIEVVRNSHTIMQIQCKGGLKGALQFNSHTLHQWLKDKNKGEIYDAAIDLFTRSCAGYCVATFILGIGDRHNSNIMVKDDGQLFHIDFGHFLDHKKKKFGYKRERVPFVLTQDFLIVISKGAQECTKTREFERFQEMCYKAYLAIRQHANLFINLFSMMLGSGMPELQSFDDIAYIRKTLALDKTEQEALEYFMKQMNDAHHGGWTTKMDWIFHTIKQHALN
T2 sequence (P42338 with tags, fused parts or gaps limits assumed): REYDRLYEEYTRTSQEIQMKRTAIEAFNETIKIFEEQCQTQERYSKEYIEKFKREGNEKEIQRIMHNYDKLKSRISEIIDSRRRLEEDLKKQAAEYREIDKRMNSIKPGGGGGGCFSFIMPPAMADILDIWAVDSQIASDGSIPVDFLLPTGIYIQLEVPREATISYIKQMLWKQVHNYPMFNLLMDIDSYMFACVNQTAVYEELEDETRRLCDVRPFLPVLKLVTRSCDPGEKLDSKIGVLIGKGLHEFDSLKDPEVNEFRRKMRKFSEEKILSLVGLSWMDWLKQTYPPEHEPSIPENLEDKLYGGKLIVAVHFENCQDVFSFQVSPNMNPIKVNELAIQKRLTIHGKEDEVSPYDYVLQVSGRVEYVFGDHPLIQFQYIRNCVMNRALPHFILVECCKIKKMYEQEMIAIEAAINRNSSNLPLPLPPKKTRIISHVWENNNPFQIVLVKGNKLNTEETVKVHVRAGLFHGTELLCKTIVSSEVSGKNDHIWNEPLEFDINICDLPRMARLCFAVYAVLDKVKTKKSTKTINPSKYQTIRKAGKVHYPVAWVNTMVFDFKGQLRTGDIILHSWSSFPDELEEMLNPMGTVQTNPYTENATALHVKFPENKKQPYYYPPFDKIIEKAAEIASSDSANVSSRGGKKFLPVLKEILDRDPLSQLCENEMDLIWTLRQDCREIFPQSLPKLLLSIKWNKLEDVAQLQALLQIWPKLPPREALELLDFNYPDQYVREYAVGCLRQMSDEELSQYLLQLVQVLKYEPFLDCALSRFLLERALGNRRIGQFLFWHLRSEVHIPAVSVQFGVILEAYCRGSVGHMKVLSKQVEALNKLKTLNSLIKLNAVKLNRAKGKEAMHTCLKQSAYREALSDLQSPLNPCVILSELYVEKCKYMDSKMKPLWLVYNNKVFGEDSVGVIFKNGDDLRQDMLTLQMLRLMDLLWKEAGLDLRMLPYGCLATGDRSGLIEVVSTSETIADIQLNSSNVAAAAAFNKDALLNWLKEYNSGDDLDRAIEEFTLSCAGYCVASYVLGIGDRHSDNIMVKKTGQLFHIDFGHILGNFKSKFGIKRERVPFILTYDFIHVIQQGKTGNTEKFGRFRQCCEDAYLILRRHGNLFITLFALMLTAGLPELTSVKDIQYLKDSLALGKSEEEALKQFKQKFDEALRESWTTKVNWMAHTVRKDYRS
T3 sequence (O00329 with tags, fused parts or gaps limits assumed): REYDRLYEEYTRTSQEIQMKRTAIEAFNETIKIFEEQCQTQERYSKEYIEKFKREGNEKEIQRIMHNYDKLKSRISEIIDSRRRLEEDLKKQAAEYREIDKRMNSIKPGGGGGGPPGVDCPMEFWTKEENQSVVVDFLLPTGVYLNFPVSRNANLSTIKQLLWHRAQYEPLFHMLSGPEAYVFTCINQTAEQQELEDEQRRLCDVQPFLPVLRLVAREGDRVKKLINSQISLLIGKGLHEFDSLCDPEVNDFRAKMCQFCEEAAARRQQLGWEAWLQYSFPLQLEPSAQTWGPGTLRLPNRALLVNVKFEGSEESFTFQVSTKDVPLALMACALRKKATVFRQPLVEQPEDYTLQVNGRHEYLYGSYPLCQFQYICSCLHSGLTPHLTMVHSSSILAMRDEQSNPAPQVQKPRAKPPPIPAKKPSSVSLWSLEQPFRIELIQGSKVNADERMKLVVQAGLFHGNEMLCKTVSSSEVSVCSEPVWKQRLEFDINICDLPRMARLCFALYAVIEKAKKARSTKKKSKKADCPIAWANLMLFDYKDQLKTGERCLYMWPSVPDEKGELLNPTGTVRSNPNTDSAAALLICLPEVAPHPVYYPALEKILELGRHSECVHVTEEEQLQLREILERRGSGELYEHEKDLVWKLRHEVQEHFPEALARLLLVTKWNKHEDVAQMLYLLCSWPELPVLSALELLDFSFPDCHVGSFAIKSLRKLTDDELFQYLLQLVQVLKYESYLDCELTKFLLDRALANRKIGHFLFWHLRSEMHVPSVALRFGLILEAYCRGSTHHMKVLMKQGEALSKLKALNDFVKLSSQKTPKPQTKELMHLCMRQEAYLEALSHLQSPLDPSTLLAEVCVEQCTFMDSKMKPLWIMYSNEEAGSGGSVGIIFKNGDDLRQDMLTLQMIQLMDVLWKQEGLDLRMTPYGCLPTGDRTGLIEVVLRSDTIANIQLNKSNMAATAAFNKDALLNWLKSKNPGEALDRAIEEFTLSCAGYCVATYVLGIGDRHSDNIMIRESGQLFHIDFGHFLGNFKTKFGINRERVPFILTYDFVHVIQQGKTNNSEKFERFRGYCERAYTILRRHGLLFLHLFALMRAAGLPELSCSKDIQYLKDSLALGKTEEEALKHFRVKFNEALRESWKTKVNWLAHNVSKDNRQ

In the case of `Cc1cc(F)ncc1-n1c(=O)n(C)c2cnc3ccc(-c4cnc(N)c(C(F)(F)F)c4)cc3c21` [Example 16.1, 8-(6-Amino-5-trifluoromethyl-pyridin-3-yl)-1-(6-fluoro-4-methyl-pyridin-3-yl)-3-methyl-1,3-dihydro-imidazo[4,5-c]quinolin-2-one], the IC50 in assay [1] turned out to be 14 nM; in assay [2] it was 47 nM; in assay [3], 27 nM.

With `CCNc1cc(-c2ccc3ncc4c(c3c2)n(-c2cnc(F)cc2C)c(=O)n4C)cnc1C` [Example 16.2, 8-(5-Ethylamino-6-methyl-pyridin-3-yl)-1-(6-fluoro-4-methyl-pyridin-3-yl)-3-methyl-1,3-dihydro-imidazo[4,5-c]quinolin-2-one], the IC50 in assay [1] was 33 nM; in assay [2] it was 150 nM; in assay [3], 27 nM.

As to `CNc1ncc(-c2ccc3ncc4c(c3c2)n(-c2cnc(F)cc2C)c(=O)n4C)cn1` [Example 16.3, 1-(6-Fluoro-4-methyl-pyridin-3-yl)-3-methyl-8-(2-methylamino-pyrimidin-5-yl)-1,3-dihydro-imidazo[4,5-c]quinolin-2-one], the IC50 in assay [1] was determined as 71 nM; in assay [2], 1180 nM; in assay [3], 113 nM.

Consider `CNc1ccc(-c2ccc3ncc4c(c3c2)n(-c2cnc(F)cc2C)c(=O)n4C)cn1` [Example 16.4, 1-(6-Fluoro-4-methyl-pyridin-3-yl)-3-methyl-8-(6-methylamino-pyridin-3-yl)-1,3-dihydro-imidazo[4,5-c]quinolin-2-one], for which the IC50 in assay [1] came to 47 nM; in assay [2], 1330 nM; in assay [3], 207 nM.

In the case of `Cc1cc(F)ncc1-n1c(=O)n(C)c2cnc3ccc(-c4cnc5c(ccn5C)c4)cc3c21` [Example 16.5, 1-(6-Fluoro-4-methyl-pyridin-3-yl)-3-methyl-8-(1-methyl-1H-pyrrolo[2,3-b]pyridin-5-yl)-1,3-dihydro-imidazo[4,5-c]quinolin-2-one], the IC50 in assay [1] came out at 27 nM; in assay [2] it was 261 nM; in assay [3] it was 39 nM.

`CCOc1ccc(-c2ccc3ncc4c(c3c2)n(-c2cncc(C)c2)c(=O)n4C)cn1` [Example 17.1, 8-(6-Ethoxy-pyridin-3-yl)-3-methyl-1-(5-methyl-pyridin-3-yl)-1,3-dihydro-imidazo[4,5-c]quinolin-2-one]: the IC50 in assay [1] was 78 nM; in assay [2], 3950 nM; in assay [3], 275 nM.

`CCNc1cc(-c2ccc3ncc4c(c3c2)n(-c2ccc(OC)nc2Cl)c(=O)n4C)cnc1C` [Example 18.1, 1-(2-Chloro-6-methoxy-pyridin-3-yl)-8-(5-ethylamino-6-methyl-pyridin-3-yl)-3-methyl-1,3-dihydro-imidazo[4,5-c]quinolin-2-one]: the IC50 is 40 nM in assay [1], 41 nM in assay [2] and 22 nM in assay [3].

In the case of `COc1ccc(-n2c(=O)n(C)c3cnc4ccc(-c5cnc(N(C)C)nc5)cc4c32)c(Cl)n1` [Example 18.3, 1-(2-Chloro-6-methoxy-pyridin-3-yl)-8-(2-dimethylamino-pyrimidin-5-yl)-3-methyl-1,3-dihydro-imidazo[4,5-c]quinolin-2-one], the IC50 in assay [1] was 5 nM; in assay [2], 45 nM; in assay [3] it was 4 nM.

`CNc1ncc(-c2ccc3ncc4c(c3c2)n(-c2ccc(N(C)C)nc2C)c(=O)n4C)cn1` [Example 19.1, 1-(6-Dimethylamino-2-methyl-pyridin-3-yl)-3-methyl-8-(2-methylamino-pyrimidin-5-yl)-1,3-dihydro-imidazo[4,5-c]quinolin-2-one]: the IC50 in assay [1] turned out to be 11 nM; in assay [2] it was 99 nM; in assay [3], 12 nM.

`CNc1cc(-c2ccc3ncc4c(c3c2)n(-c2ccc(N(C)C)nc2C)c(=O)n4C)cnc1C` [Example 19.2, 1-(6-Dimethylamino-2-methyl-pyridin-3-yl)-3-methyl-8-(6-methyl-5-methylamino-pyridin-3-yl)-1,3-dihydro-imidazo[4,5-c]quinolin-2-one]: the IC50 in assay [1] was 14 nM; in assay [2], 68 nM; in assay [3], 28 nM.

Turning to `CCOc1ccc(-c2ccc3ncc4c(c3c2)n(-c2ccc(N(C)C)nc2C)c(=O)n4C)cn1` [Example 19.3, 1-(6-Dimethylamino-2-methyl-pyridin-3-yl)-8-(6-ethoxy-pyridin-3-yl)-3-methyl-1,3-dihydro-imidazo[4,5-c]quinolin-2-one], the figures for the IC50 in assay [1], in assay [2] and in assay [3] were 55 nM, 1970 nM and 395 nM, respectively.

On to `COc1cc(-c2ccc3ncc4c(c3c2)n(-c2ccc(N(C)C)nc2C)c(=O)n4C)cnc1CO` [Example 19.4, 1-(6-Dimethylamino-2-methyl-pyridin-3-yl)-8-(6-hydroxymethyl-5-methoxy-pyridin-3-yl)-3-methyl-1,3-dihydro-imidazo[4,5-c]quinolin-2-one], for which the figures for the IC50 in assay [1], in assay [2] and in assay [3] were 9 nM, less than 3 nM and 24 nM, respectively.

For the compound `Cc1nc(N(C)C)ccc1-n1c(=O)n(C)c2cnc3ccc(-c4cncc(N)c4)cc3c21` [Example 19.5, 8-(5-Amino-pyridin-3-yl)-1-(6-dimethylamino-2-methyl-pyridin-3-yl)-3-methyl-1,3-dihydro-imidazo[4,5-c]quinolin-2-one], the IC50 in assay [1] is 65 nM; in assay [2], 300 nM; in assay [3] it was 67 nM.

On to `COCC(=O)Nc1ccc(-n2c(=O)n(C)c3cnc4ccc(-c5cncc(N)c5)cc4c32)c(C)n1` [Example 20.1, N-{5-[8-(5-Amino-pyridin-3-yl)-3-methyl-2-oxo-2,3-dihydro-imidazo[4,5-c]quinolin-1-yl]-6-methyl-pyridin-2-yl}-2-methoxy-acetamide], for which the figures for the IC50 in assay [1], in assay [2] and in assay [3] were 50 nM, 38 nM and 34 nM, respectively.

`CCOc1ccc(-c2ccc3ncc4c(c3c2)n(-c2ccc(NC(=O)COC)nc2C)c(=O)n4C)cn1` [Example 20.2, N-{5-[8-(6-Ethoxy-pyridin-3-yl)-3-methyl-2-oxo-2,3-dihydro-imidazo[4,5-c]quinolin-1-yl]-6-methyl-pyridin-2-yl}-2-methoxy-acetamide]: the IC50 in assay [1] amounted to 162 nM; in assay [2], 891 nM; in assay [3], 247 nM.

With `CNc1ncc(-c2ccc3ncc4c(c3c2)n(-c2ccc(NC(=O)COC)nc2C)c(=O)n4C)cn1` [Example 20.3, 2-Methoxy-N-{6-methyl-5-[3-methyl-8-(2-methylamino-pyrimidin-5-yl)-2-oxo-2,3-dihydro-imidazo[4,5-c]quinolin-1-yl]-pyridin-2-yl}-acetamide], the figures for the IC50 in assay [1], in assay [2] and in assay [3] were 123 nM, 2760 nM and 403 nM, respectively.

Turning to `CNc1ccc(-c2ccc3ncc4c(c3c2)n(-c2ccc(NC(=O)COC)nc2C)c(=O)n4C)cn1` [Example 20.4, 2-Methoxy-N-{6-methyl-5-[3-methyl-8-(6-methylamino-pyridin-3-yl)-2-oxo-2,3-dihydro-imidazo[4,5-c]quinolin-1-yl]-pyridin-2-yl}-acetamide], the IC50 in assay [1] worked out at 39 nM; in assay [2], 592 nM; in assay [3] it was 78 nM.

As for `COCC(=O)Nc1ccc(-n2c(=O)n(C)c3cnc4ccc(-c5cncc(OC(C)C)c5)cc4c32)c(C)n1` [Example 20.5, N-{5-[8-(5-Isopropoxy-pyridin-3-yl)-3-methyl-2-oxo-2,3-dihydro-imidazo[4,5-c]quinolin-1-yl]-6-methyl-pyridin-2-yl}-2-methoxy-acetamide], the IC50 came out at 40 nM in assay [1], 542 nM in assay [2] and 142 nM in assay [3].

For the compound `COCCOc1ccc(-n2c(=O)n(C)c3cnc4ccc(-c5cncc(N6CCC6)c5)cc4c32)c(C)n1` [Example 22.2, 8-(5-Azetidin-1-yl-pyridin-3-yl)-1-[6-(2-methoxy-ethoxy)-2-methyl-pyridin-3-yl]-3-methyl-1,3-dihydro-imidazo[4,5-c]quinolin-2-one], the values for the IC50 in assay [1], in assay [2] and in assay [3] were 171 nM, 746 nM and 101 nM, respectively.

For the compound `COCCOc1ccc(-n2c(=O)n(C)c3cnc4ccc(-c5cnc(COC)c(OC)c5)cc4c32)c(C)n1` [Example 22.3, 1-[6-(2-Methoxy-ethoxy)-2-methyl-pyridin-3-yl]-8-(5-methoxy-6-methoxymethyl-pyridin-3-yl)-3-methyl-1,3-dihydro-imidazo[4,5-c]quinolin-2-one], the IC50 in assay [1] was determined as 164 nM; in assay [2] it was 122 nM; in assay [3], 56 nM.

As for `Cc1nc(N2CC(F)(F)C2)ccc1-n1c(=O)n(C)c2cnc3ccc(-c4cncc(C(C)(C)O)c4)cc3c21` [Example 24.2, 1-[6-(3,3-Difluoro-azetidin-1-yl)-2-methyl-pyridin-3-yl]-8-[5-(1-hydroxy-1-methyl-ethyl)-pyridin-3-yl]-3-methyl-1,3-dihydro-imidazo[4,5-c]quinolin-2-one], the IC50 stood at 10 nM in assay [1], 19 nM in assay [2] and 18 nM in assay [3].
